Consider 1 compound from US20040235785A1, “Potentiator of antitumoral agents in the treatment of cancer” (priority 2001, published 2004).

Some results are limits rather than exact numbers.

The subject of data set [1] is MCF-7 human breast adenocarcinoma cell line. In words: Maximal tolerated dose in vitro (resazurin reduction test), MCF-7. It is filed as cell-based. As to conditions: MCF-7, 48 h. An excerpt: (§1) The human cell lines breast cancer adenocarcinoma MCF-7, prostatic adenocarcinoma PC-3, lung carcinoma A-549 and colon adenocarcinoma DLD-1 together with the mouse cell line L-929 (fibrobast) were obtained from the European Collection of Cell Cultures (ECACC, Salisbury, United Kingdom). Normal human fibroblasts were purchased from Biopredic International (Rennes, France). The M4BEU human melanoma cell line was generously supplied by Dr. J F Doré (Institut National de la Santé et de la Recherche Médicale-INSERM, Unit 218, Lyon, France). All the cell lines were grown in minimum essential medium with Earle's salts (Gibco-BRL, Paisley, Scotland) supplemented with 10% fetal calf serum (Sigma-Aldrich), 1×solution of vitamins (Gibco-BRL), 1 mM sodium pyruvate (Gibco-BRL), 1×non-essential amino acids (Gibco-BRL) and 2 mg of gentamicin base (Gibco-BRL). Cells were cultured in a humidified atmosphere at 37° C. in 5% CO2.
Background: The colour change of resazurin is a common sign of viable cells or microbes.

The subject of data set [2] is PC-3 human prostatic adenocarcinoma cell line. Nature of the data set: Maximal tolerated dose in vitro (resazurin reduction test), PC-3. In kind it is cell-based. Conditions: PC-3, 48 h.
Source text: as §1

The subject of data set [3] is A-549 human lung carcinoma cell line. In words: Maximal tolerated dose in vitro (resazurin reduction test), A-549. In kind it is cell-based. Conditions: A-549, 48 h.
Source text: as §1

The test system of data set [4] is DLD-1 human colon adenocarcinoma cell line. Nature of the data set: Maximal tolerated dose in vitro (resazurin reduction test), DLD-1. In kind it is cell-based. As to conditions: DLD-1, 48 h.
Source text: as §1

In data set [5] the test system is M4BEU human melanoma cell line. In words: Maximal tolerated dose in vitro (resazurin reduction test), M4BEU. It is filed as cell-based. As to conditions: 48 h.
Source text: as §1

A further data set relates to normal human fibroblasts. Nature of the data set: Maximal tolerated dose in vitro (resazurin reduction test), human fibroblast. It is filed as cell-based. Conditions: 48 h.
Source text: as §1

The subject of data set [6] is L-929 mouse subcutaneous connective tissue cell line. In words: Maximal tolerated dose in vitro (resazurin reduction test), L-929. In kind it is cell-based. Conditions: L-929, 48 h.
Source text: as §1

Data set [7] concerns normal and cancerous cell lines. In words: In vitro toxicity / MTD, stated overall for the cell lines tested. In kind it is cell-based. The protocol:
The screening of terpene potentiators in accordance with the present invention is carried out by the evaluation of several parameters including: i) the cytotoxicity (maximal tolerated dose); and iii) the effect on the intracellular glutathione content; and iv) the synergism in combination with antitumor agents. Briefly, the cytotoxicity or the cell growth inhibition induced by the terpenes is evaluated on various cell lines in order to determine the maximal tolerated dose (MTD) or non-toxic dose. […] The cell growth is measured by the fluorescence induced by the metabolic transformation of resazurin™ in resorufin™, which is proportional to living cells (see materials and methods). […] Moreover, β-caryophyllene is not toxic in mice at >500 mg/kg. It is shown herein that β-caryophyllene is having a synergistic action on the treatment of cancer when used in combination with antitumoral agents such as paclitaxel. To assess the synergistic effect of terpenes such as β-caryophyllene, the cancer cells are treated with growing concentrations of antitumoral agents (paclitaxel) with or without terpene (β-caryophyllene).
The in vitro toxicity of β-caryophyllene has been evaluated from 5 cell lines: human adenocarcinoma, MCF-7; human prostatic adenocarcinoma, PC-3; human lung carcinoma, A-549 and human colon adenocarcinoma, DLD-1 and from human and mouse fibroblasts.
Cell survival has been evaluated after receiving an increasing dose of β-caryophyllene between 6.25 and 800 µM. It is shown in table I that β-caryophyllene is not toxic in vitro in a dose less than […].

A further data set concerns MCF-7 cells. Nature of the data set: Synergistic effect in combination with paclitaxel, MCF-7. It is filed as cell-based, human. Conditions: MCF-7, β-caryophyllene combined with paclitaxel.
For data set [8] the following is noted: studies performed by the National Cancer Institute; cited from earlier work.

Description for MCF-7 cells: The resazurin reduction test (RRT) was carried out according to the protocol as described by O'Brien et al. Briefly, plates were rinsed by 200 μl PBS (37° C., Gibco) at 37° C. using an automatic microplate washer (Cell Wash™, Labsystems, Helsinki, Finland) and emptied by overturning on absorbent toweling. Then, 150 μl of a 25μg/ml solution of resazurin in MEM without Phenol red was added in each well using an automatic microvolume dispenser (Multidrop 384™ Labsystems). The plates were incubated 1 h at 37° C. in a humidified atmosphere with 5% of CO2 for fluorescence development by living cells. Fluorescence was then measured on the automated 96-well plate reader Fluoroskan Ascent FL™ (Labsystems) using an excitation wavelength of 530 nm and an emission one of 590 nm. The fluorescence is proportional to the number of living cells in the well.
Briefly, the cells were plated at a density of 5×10^3 cells per well in 96-well microplates (Nunclon™, Nunc) in 100 μl of culture medium and were allowed to adhere for 16 h before treatment. […] The proliferation of tumour cells was assessed using resazurin reduction test as described above. The synergistic effect of β-caryophyllene was determined by the comparison between the percentage of cells growth inhibition induced by the paclitaxel used alone and the one induced by the combination of paclitaxel and β-caryophyllene.

`C=C1CC/C=C(\C)CC[C@@H]2[C@@H]1CC2(C)C` [β-caryophyllene]: the “MTD (maximal tolerated dose or maximal no toxic dose)” value (in data set [1]; in data set [2]; in [3]; in data set [4]; in data set [5]; in the data set with normal human fibroblasts) was greater than 800 µM in each case. For the same compound, in data set [6], the “MTD (maximal tolerated dose or maximal no toxic dose)” value is greater than 800 µM. Further, the “cytotoxicity against normal and cancerous cell lines tested in vitro” value in data set [7] is given as “does not induce cytotoxicity”. Besides, the “in vitro toxicity (cell survival)” value in data set [7] (dose less than 800, doses tested between 6.25 and 800) is given as “not toxic”. Also, the “MTD (higher concentration that does not induce cell growth inhibition)” value in [7] (various cell lines, stated overall) is “greater than 800 μM”. In addition, in the data set with MCF-7 cells, the “increase of cell growth inhibition induced by paclitaxel” value is on record as “about 40%”. In data set [8], the mutagenicity entry is “not mutagenic”.
